From patent US20230338338A1, “PHARMACEUTICAL COMPOSITIONS COMPRISING IONIC LIQUIDS” (The Provost, Fellows, Foundation Scholars, and the other …, priority 2021, published 2023)

Experiments:
Type in all cases: physicochemical
[1] = Dissolution study, USP Apparatus 2, simulated intestinal fluid (SIF); conditions: 0.05M phosphate buffer (pH 6.8), 900 ml, 37° C., 50 rpm, equivalent of 200 mg ibuprofenate ion, after 10 minutes until the end of four hours
Description: (§1) Dissolution studies were performed using a USP Apparatus 2 with a Sotax AT7 dissolution bath (Carl Stuart Limited, Dublin, Ireland). The mass of powder corresponding to the equivalent of 200 mg of ibuprofenate ion (equivalent to one dose) was added to 900 ml of dissolution media equilibrated at 37° C. stirred at 50 rpm. Samples were taken and replaced with fresh media every 5 min for the first 30 min, then at 45 min, 60 min and then every 30 min for the remainder of the experiment. The first 2 ml of each 5 ml sample was filtered and discarded before the remaining sample was filtered through a 0.45 μm nylon filter into a HPLC vial. All experiments were carried out in triplicate. A sample of the powder was assayed by completely dissolving it in methanol (n=3) and finding the ionic liquid content by HPLC.
The dissolution of powders 1 and 5 to 8 in simulated intestinal fluid (SIF), 0.05M phosphate buffer (pH 6.8) over a period of four hours was studied.
The dissolution of powders 9 and 10 in simulated intestinal fluid (SIF), 0.05M phosphate buffer (pH 6.8) over a period of four hours was studied.

[2] = Dissolution study, USP Apparatus 2, deionised water; conditions: 900 ml, 37° C., 50 rpm, equivalent of 200 mg ibuprofenate ion, after 10 minutes until the end of four hours
Description: as §1
The dissolution of powders 1 and 5 to 8 in deionised water over a period of four hours was studied.
The dissolution of powders 9 and 10 in deionised water over a period of four hours was studied.
An ibuprofen amorphous solid dispersion was also tested. The amorphous solid dispersion was prepared by spray drying a solution of ibuprofen and hydroxypropyl methylcellulose in methanol in the same way as Powders 1 to 8. The ibuprofen content of the amorphous solid dispersion was the same as Powder 1.

[3] = Thermodynamic stability and miscibility of the ionic liquid in dissolution media (stirred 24 hours at 37° C., then monitored for two years); conditions: for miscibility with dissolution medium: 2 to 85% w/w; for thermodynamic stability (crystallisation or liquid-liquid phase separation): 2 to 85% w/w BMIm Ibu:dissolution medium, stirred 24 hours at 37° C., then ambient conditions over two years
Description: The thermodynamic stability of BMIm Ibu (ionic liquid) in deionised water (DIW) and simulated intestinal fluid (SIF; 0.05 M phosphate buffer, pH 6.8) was quantified as follows: Ratios of 2 to 85% w/w BMIm Ibu:dissolution medium were placed in small vials and allowed to stir for 24 hours at 37° C.

[4] = simulated intestinal fluid (SIF; 0.05 M phosphate buffer, pH 6.8)

level of dissolution [1] [%] | level of dissolution [2] [%] | miscibility with dissolution medium ([3]; deionised water (DIW)) | miscibility with dissolution medium [3, 4] | SMILES | thermodynamic stability (crystallisation or liquid-liquid phase separation) ([3]; deionised water (DIW)) | thermodynamic stability (crystallisation or liquid-liquid phase separation) [3, 4]
100 | ≤ 30 | – | – | CC(C)Cc1ccc(C(C)C(=O)O)cc1 (stereo not drawn) [crystalline ibuprofen, ibuprofen] | – | –
– | – | fully miscible | fully miscible | CC(C)Cc1ccc(C(C)C(=O)[O-])cc1.CCCCn1cc[n+](C)c1 (stereo not drawn) [BMIm Ibu, 1-butyl-3-methyl imidazolium ibuprofenate] | No crystallisation or phase separation was observed | No crystallisation or phase separation was observed
